The NIST ThermoML archive (doi:10.1016/j.jct.2018.07.012)

Test: mn = molality of the nth substance listed, in mol/kg
Details: for surface tension liquid-gas: Maximal bubble pressure; for mass density: 100 kPa, Liquid, Vibrating tube method

CC(=O)[O-].CCCn1cc[n+](C)c1 [1-propyl-3-methylimidazolium acetate] + O
Details | mass density [kg/m3] | surface tension liquid-gas [mN/m]
288.15 K, m1 = 0.0113 | 1000.22 | 73.4
288.15 K, m1 = 0.0172 | 1000.35 | 73.2
288.15 K, m1 = 0.0279 | 1000.55 | 72.8
288.15 K, m1 = 0.0446 | 1000.78 | 72.5
288.15 K, m1 = 0.1119 | 1001.76 | 71
288.15 K, m1 = 0.1673 | 1002.56 | 69.8
288.15 K, m1 = 0.2244 | 1003.49 | 68.6
288.15 K, m1 = 0.2808 | 1004.43 | 67.4
288.15 K, m1 = 0.3352 | 1005.37 | 66.2
288.15 K, m1 = 0.3925 | 1006.31 | 65.1
288.15 K, m1 = 0.448 | 1007.25 | 64
288.15 K, m1 = 0.5037 | 1007.98 | 63
293.15 K, m1 = 0.0113 | 999.22 | 72.6
293.15 K, m1 = 0.0172 | 999.35 | 72.5
293.15 K, m1 = 0.0279 | 999.53 | 72.1
293.15 K, m1 = 0.0446 | 999.76 | 71.8
293.15 K, m1 = 0.1119 | 1000.68 | 70.5
293.15 K, m1 = 0.1673 | 1001.46 | 69
293.15 K, m1 = 0.2244 | 1002.37 | 67.8
293.15 K, m1 = 0.2808 | 1003.28 | 66.7
293.15 K, m1 = 0.3352 | 1004.16 | 65.5
293.15 K, m1 = 0.3925 | 1005.08 | 64.4
293.15 K, m1 = 0.448 | 1005.89 | 63.3
293.15 K, m1 = 0.5037 | 1006.64 | 62.4
298.15 K, m1 = 0.0113 | 997.99 | 71.8
298.15 K, m1 = 0.0172 | 998.1 | 71.6
298.15 K, m1 = 0.0279 | 998.25 | 71.3
298.15 K, m1 = 0.0446 | 998.46 | 70.9
298.15 K, m1 = 0.1119 | 999.35 | 69.6
298.15 K, m1 = 0.1673 | 1000.14 | 68.4
298.15 K, m1 = 0.2244 | 1001.01 | 67
298.15 K, m1 = 0.2808 | 1001.86 | 66
298.15 K, m1 = 0.3352 | 1002.67 | 64.8
298.15 K, m1 = 0.3925 | 1003.62 | 63.7
298.15 K, m1 = 0.448 | 1004.43 | 62.6
298.15 K, m1 = 0.5037 | 1005.19 | 61.6
303.15 K, m1 = 0.0113 | 996.54 | 71
303.15 K, m1 = 0.0172 | 996.62 | 70.8
303.15 K, m1 = 0.0279 | 996.78 | 70.5
303.15 K, m1 = 0.0446 | 996.99 | 70.1
303.15 K, m1 = 0.1119 | 997.84 | 68.8
303.15 K, m1 = 0.1673 | 998.61 | 67.6
303.15 K, m1 = 0.2244 | 999.46 | 66.3
303.15 K, m1 = 0.2808 | 1000.3 | 65.1
303.15 K, m1 = 0.3352 | 1001.12 | 64
303.15 K, m1 = 0.3925 | 1001.97 | 62.9
303.15 K, m1 = 0.448 | 1002.83 | 61.8
303.15 K, m1 = 0.5037 | 1003.47 | 60.9
308.15 K, m1 = 0.0113 | 994.86 | 70.2
308.15 K, m1 = 0.0172 | 994.92 | 70
308.15 K, m1 = 0.0279 | 995.09 | 69.7
308.15 K, m1 = 0.0446 | 995.28 | 69.3
308.15 K, m1 = 0.1119 | 996.14 | 68.1
308.15 K, m1 = 0.1673 | 996.89 | 66.8
308.15 K, m1 = 0.2244 | 997.74 | 65.4
308.15 K, m1 = 0.2808 | 998.56 | 64.4
308.15 K, m1 = 0.3352 | 999.31 | 63.3
308.15 K, m1 = 0.3925 | 1000.19 | 62.2
308.15 K, m1 = 0.448 | 1000.95 | 61.2
308.15 K, m1 = 0.5037 | 1001.66 | 60.2
313.15 K, m1 = 0.0113 | 992.97 | 69.3
313.15 K, m1 = 0.0172 | 993.03 | 69.1
313.15 K, m1 = 0.0279 | 993.19 | 68.8
313.15 K, m1 = 0.0446 | 993.36 | 68.5
313.15 K, m1 = 0.1119 | 994.21 | 67.1
313.15 K, m1 = 0.1673 | 994.99 | 65.9
313.15 K, m1 = 0.2244 | 995.82 | 64.7
313.15 K, m1 = 0.2808 | 996.66 | 63.6
313.15 K, m1 = 0.3352 | 997.38 | 62.4
313.15 K, m1 = 0.3925 | 998.21 | 61.4
313.15 K, m1 = 0.448 | 998.97 | 60.4
313.15 K, m1 = 0.5037 | 999.65 | 59.5
318.15 K, m1 = 0.0113 | 990.93 | 68.5
318.15 K, m1 = 0.0172 | 991.01 | 68.4
318.15 K, m1 = 0.0279 | 991.15 | 68
318.15 K, m1 = 0.0446 | 991.33 | 67.7
318.15 K, m1 = 0.1119 | 992.2 | 66.4
318.15 K, m1 = 0.1673 | 992.92 | 65.2
318.15 K, m1 = 0.2244 | 993.77 | 64.1
318.15 K, m1 = 0.2808 | 994.56 | 63
318.15 K, m1 = 0.3352 | 995.34 | 61.9
318.15 K, m1 = 0.3925 | 996.12 | 60.9
318.15 K, m1 = 0.448 | 996.87 | 59.8
318.15 K, m1 = 0.5037 | 997.59 | 58.9

O [water] + CC(=O)[O-].CCCCC[n+]1ccn(C)c1
m2 = 0
Details | mass density [kg/m3] | surface tension liquid-gas [mN/m]
288.15 K | – | 73.5
293.15 K | – | 72.8
298.15 K | – | 72
303.15 K | – | 71.2
308.15 K | 994.06 | 70.4
313.15 K | – | 69.6
318.15 K | – | 68.7

O [water] + CC(=O)[O-].CCCn1cc[n+](C)c1
m2 = 0
Details | mass density [kg/m3] | surface tension liquid-gas [mN/m]
288.15 K | – | 73.5
293.15 K | – | 72.8
298.15 K | – | 72
303.15 K | – | 71.2
308.15 K | 994.06 | 70.4
313.15 K | – | 69.6
318.15 K | – | 68.7
